The results in this text go back to patent US6340770B1, “Platinum (IV) complex used as anti-cancer agent and preparing method thereof” (Sook Myung Women's University, priority 1999, dated 2002).

Data set [1] deals with L1210 cells. The data set is described as follows: MTT assay, anti-cancer activity on L1210 cells in vitro. The data set is classed as cell-based, mice. Set-up: Cell Growth: unit not given here. The settings on record: for IC50: MTT, 48 hours, read-out: IC50 in L1210 Cell; for Cell Growth: L1210, 48 hours; for anti-cancer activity (IC50) compared with cisplatin, in words: L1210 cell. The method, then:
(§1) In order to examine anti-cancer activity of Pt(IV) complexes according to the present invention, MTT, i.e., [3-(4,5-dimethylthiazol-2-yl)-2,5-diphenyltetrazolium bromide] assay was performed on HL60 and L1210 which are leukemic cell of human and mice, respectively.
(§2) MTT assay is a quantitative color analysis based on that mitochondrial dehydrogenase, one of cell enzymes, changes yellow water-soluble MTT into deep-blue water-insoluble formazan, and the amount of the generated formazan is proportioned to active cell numbers.^122-124)
(§3) HL60 and L1210, suspended leukemic cells of humans and mice, respectively are used as cancer cells for determining the anti-cancer activity of the Pt (IV) complex according to the above Examples. They were obtained by cultivating the frozen cells alloted from Korean Cell Line Bank.
(§4) Cells were subject to subculture at the interval of 2-3 days at 37° C. in the presence of 5% CO2 in RPMI 1640 culture medium controlled to contain 1% penicillin-streptomycin (10,000 unit/ml) and 10% FBS, with keeping the cell number between 2×10^5/ml-5×10^5/ml.
(§5) Pt (IV) complexes prepared by the Examples of the present invention were used as pharmaceutical compounds. Among them, a water-soluble compound was used as it was, and a water-insoluble compound was used after dissolving in DMSO or 95% ethanol, adding PBS to be 2 mM concentarion, filtering with 0.2μ syringe filter to be sterile state and performing serial-dilution with a culture medium to control predetermined concentrations. The final concentration of DMSO or 95% ethanol in cell culture medium was controlled to be below 0.1%.
HL60 and L1210 cells were put into 96-well plate in the amount of 10^4/well and then stabilized for a half hour at 37° C. in the presence of 5% CO2.
(§6) After cultivating HL60 cell at 37° C. in the presence of 5% CO2 for 72 hours and L1210 for 48 hours, MTT reagent (2 mg/ml) was added 50 μl/well, and an additional cultivation was performed at 37° C. in the presence of 5% CO2 for 4 hours. Then, after centrifuging the resultant at 2000 rpm for 5 minites, the supernatant was removed by 170 μl/well.
(§7) Then, after adding DMSO 150 μl/well, the resultant was laid at 40° C. for 30 minutes and stirred for 3 minutes. Then, absorption test using ELISA reader was performed at 570 nm.
(§8) For calibration, a blank test was performed on the same 96-well plate under the same condition.
(§9) The above-described experiment was performed on more than 3 wells under the same condition with different concentration, and the same experiment was repeated over 3 times.
Background: Tetrazolium assays rely on reduction of a dye to a coloured formazan, in cell work by metabolically active cells.

In data set [2] the test system is HL60 cells. The data set is described as follows: MTT assay, anti-cancer activity on HL60 cells in vitro. Set-up: Cell Growth: unit not given here. The settings on record: for IC50: MTT, 72 hours, read-out: IC50 in HL60 Cell; for Cell Growth: HL60, 72 hours; for anti-cancer activity (IC50) compared with cisplatin, in words: HL60 cell. The data set is classed as cell-based, human. The protocol:
as §1, §2, §3, §4, §5
HL60 and L1210 cells were put into 96-well plate in the amount of 10^4/well and then stabilized for a half hour at 37° C. in the presence of 5% CO2. […]
as §6, §7, §8, §9

Data set [3] has as its system male ICR mice. Kind of data set: Nephrotoxicity test, serologic analysis (BUN, creatinine, uric acid) after i.p. injection. Format: in vivo. Also on record: unit not given here. The conditions noted are these: serum, dose 8x IC50 (cisplatin 7x IC50), average ± SD of 5-6 ICR mice. The protocol:
In order to serologically analyze nephrotoxicity of various Pt complexes, after injecting each agent intraperitneally, blood was exsanguinated after 6 hours, 1 day, 3 days and 7 days, respectively. Then, serum was seperated f rom the blood to detect the values of BUN (Blood urea nitrogen), creatinine and uric acid.^133)
As an experimental animal, male ICR mice each weighing about 25 g were purchased from Korean Experimental Animal Center. The experimental animals were bred in SPF(Specific Pathogen Free) room in Medical School of HanYang University, and food (purchased from SamYang) and water were supplied unrestrictedly.
The experimental animals were divided into a normal control group, a control group and an experimental group, and the experimental group was again divided into a cisplatin dispensing group, a 7(Ac)Cl treated group, a 7(TF)Cl treated group, a 7(Ac)M treated group, a 7(TF)M treated group and a 7FMN treated group.
Each groups comprised 20-22 mice, and each group was again divided into a 6 hour-treating group, a 1 day-treating group, a 3 day-treating group and a 7 day-treating group, which contains 5-6 mice, respectively.
First, a predetermined amount of agent was dissolved in DMSO or ethanol, and then PBS was added thereto to make the total volume be 6.6 ml. At this time, the content of DMSO or ethanol was controlled to be below 5%.
The agent dissolved in PBS was filtered using 0.2μ syringe filter, sterilized, and injected into intraperitoneally. Then, after 6 hours, 1 day, 3 days and 7 days, exsanguination was performed.
After seperating serum by centrifuging the blood exsanguinated from mice at 4,500 rpm for 15 minutes, the serum was kept at the temperature −20° C. BUN (Blood urea nitrogen), creatinine and uric acid were detected using a biochemical automatic analyzing apparatus (Olympus reply, Japan) and average and standard deviation were calculated from the obtained data.
Control group was dissolved in PBS and injected in dose of 6.6 ml/Kg.

The mark [4] stands for this setting: 1 Day after single i.p. injection.
Setting [5] is: 7 Day after single i.p. injection.
Setting [6] is: 6 hour after single i.p. injection.
[7] abbreviates: 3 day after single i.p. injection.

By IC50 is commonly meant the concentration needed to halve the response being measured. Consider `NCCN.[Cl][Pt][Cl]` [5 Cl, cis-dichloro,ethylenediamine Pt(II) complex], for which the IC50 came to 11 µM in data set [1] and 11.7 µM in data set [2].

`[Cl][Pt]1([Cl])[NH]CCC[NH]1` [6 Cl, cis-dichloro-1,3-propanediamine Pt(II) complex]: the IC50 in data set [1] came out at 19.3 µM; in data set [2] it was 16.1 µM.

Take `[Cl][Pt]1([Cl])[NH]CCCC[NH]1` [7 Cl, cis-dichloro-1,4-butanediamine Pt(II) complex]: the IC50 in data set [1] was found to be 2.01 µM; in data set [2], 1.83 µM.

Take `O=C1CC(=O)[O][Pt]2([NH]CCCC[NH]2)[O]1` [7 Mal, malonato-1,4-butanediamine Pt(II) complex]: the “Cell Growth” value in data set [1] (0.01 μM) stood at 91; in data set [1] (0.05 μM) it was 95; in data set [1] (0.1 μM), 93; in data set [1] (0.5 μM), 84.8; in data set [1] (1 μM), 80.1; in data set [1] (5 μM), 68. Besides, the “Cell Growth” value in data set [1] (10 μM) is recorded as 55; in data set [1] (50 μM) it was 26.1; in data set [1] (100 μM) it was 20.5; in data set [2] (0.01 μM), 92; in data set [2] (0.05 μM), 89; in data set [2] (0.1 μM) it was 89. Moreover, the “Cell Growth” value in data set [2] (0.5 μM) is on record as 82.6; in data set [2] (1 μM), 78.8; in data set [2] (5 μM), 63.2; in data set [2] (10 μM) it was 57; in data set [2] (50 μM), 27; in data set [2] (100 μM), 20. Further, the IC50 in data set [1] worked out at 15 µM; in data set [2], 13.8 µM.

Regarding `CC(=O)[O][Pt]12([O]C(C)=O)([NH]CCCC[NH]1)[O]C(=O)CC(=O)[O]2` [7(Ac)M, trans-diacetato,malonato-1,4-butanediamine Pt (IV) complex], in data set [2], the “anti-cancer activity (IC50) compared with cisplatin, in words” value is on record as “higher than that of cisplatin”. In addition, the “BUN after the 1st time injection” value in data set [3] (setting [4]) came to 22.0 ± 4.1; in data set [3] (setting [5]), 21.5 ± 5.1; in data set [3] (setting [6]) it was 24.0 ± 6.2; in data set [3] (setting [7]) it was 22.4 ± 3.3. Moreover, the “Uric acid after the 1st time injection” value was found to be 2.34 ± 1.0 in data set [3] (setting [4]), 1.52 ± 0.3 in data set [3] (setting [5]), 2.66 ± 0.7 in data set [3] (setting [6]) and 2.0 ± 1.5 in data set [3] (setting [7]).

Take `[OH][Pt]1([OH])([Cl])([Cl])[NH]CCCC[NH]1` [7(OH)Cl, trans, cis-dihydroxo,dichloro-1,4-butanediamine Pt(IV) complex]: the “anti-cancer activity (IC50) compared with cisplatin, in words” value in data set [1] and in data set [2] was “lower anti-cancer activity than that of cisplatin” throughout.

Turning to `O=C1CC(=O)[O][Pt]2([OH])([OH])([NH]CCCC[NH]2)[O]1` [7(OH)M, trans-dihydroxo,malonato-1,4-butanediamine Pt(IV) complex], the “anti-cancer activity (IC50) compared with cisplatin, in words” value in data set [1] and in data set [2] was “lower anti-cancer activity than that of cisplatin” in each case.

On to `O=C1CC(=O)[O][Pt]2([O]C(=O)C(F)(F)F)([O]C(=O)C(F)(F)F)([NH]CCCC[NH]2)[O]1` [7(TF)M, trans-ditrifluoroacetato,malonato-1,4-butanediamine Pt(IV) complex], for which the “anti-cancer activity (IC50) compared with cisplatin, in words” value in data set [2] was “higher than that of cisplatin”. Moreover, the “BUN after the 1st time injection” value in data set [3] (setting [4]) was 23.1 ± 4.8; in data set [3] (setting [5]), 22.3 ± 1.7; in data set [3] (setting [6]) it was 22.1 ± 3.1; in data set [3] (setting [7]) it was 22.9 ± 1.7. The “Uric acid after the 1st time injection” value in data set [3] (setting [4]) was 1.8 ± 0.4; in data set [3] (setting [5]), 1.96 ± 0.3; in data set [3] (setting [6]) it was 2.04 ± 0.3; in data set [3] (setting [7]), 1.82 ± 0.4.

On to `N.N.[Cl][Pt][Cl]` [CDDP, cis-Diaminedichloroplatinum(II)], for which the IC50 in data set [2] amounted to 2.74 µM.
